The numbers were not newly measured in patent US20090099094A1, “Use of Somatostatin Agonists to Treat Medullary Thyroid Carcinoma” (priority 2007, published 2009), which cites them from elsewhere.

The subject of this series is MTC. The conditions noted are these: cited from earlier work.

In the case of `C[C@@H](O)[C@@H]1NC(=O)[C@H](CCCCN)NC(=O)[C@@H](Cc2c[nH]c3ccccc23)NC(=O)[C@H](Cc2ccccc2)NC(=O)[C@@H](NC(=O)[C@H](N)Cc2ccccc2)CSSC[C@@H](C(=O)N[C@H](CO)[C@@H](C)O)NC1=O` [octreotide], the suppressing calcitonin secretion result (MTC, commercially available somatostatin analogs) is “lack of efficacy”. For the setting “treatment of MTC patients”, the “reducing tumour size and/or increasing patient survival rate” value is recorded as “little effect”.
